Measurements taken from US20200108032A1, “USE OF ISOFERULIC ACID, ISOFERULIC ACID-CONTAINING TRADITIONAL CHINESE MEDICINE EXTRACT AND CIMICIFUGAE RHIZOMA” (BEIJING DITAN HOSPITAL, CAPITAL MEDICAL UNIVERSITY, priority 2017, published 2020).

What was measured:
Assay type in all cases: in vivo, C57BL/6 mice
[1] = system: mouse model of ConA hepatitis; experiment: Serum ALT and AST in mouse model of ConA hepatitis; conditions: serum 10 hours after ConA 15 mg/kg i.v.; doses as Experimental Example 1; MEAN ± SEM
Method: (§1) The test materials and animals were the same as those in Experimental Example 1.
(§2) Grouping: C57BL/6 mice, male, 18-20 g, after 1 day of adaptive breeding, the mice were randomly divided into 6 groups: normal control group; ConA model group, Cimicifugae rhizoma compatibility group, Cimicifugae rhizoma group, Cimicifugae rhizoma total phenolic acid group and isoferulic acid group.
(§3) Model preparation and drug administration: except the normal control group, mice were injected intravenously once at a dose of ConA 15 mg/kg. The dosages of each drug group were the same as those of Experimental Example 1.
(1) The effects of each drug group on serum ALT and AST of ConA mice were examined. Eight mice in each group were sacrificed under anesthesia 10 hours after ConA injection. Peripheral blood was taken and serum was separated to detect ALT and AST.

[2] = system: mouse model of ConA hepatitis; experiment: Liver pathological damage (HE staining) in mouse model of ConA hepatitis; conditions: liver 10 hours after ConA 15 mg/kg; compared with the ConA group
Method: as §1, §2, §3
(2) The effects of each drug group on liver pathological damage in ConA mice were examined. Three mice in each group were sacrificed under anesthesia 10 hours after ConA injection. The left lobe of the liver was taken, cut into a size of about 5 mm^3, and placed in 10% formalin solution, and dehydrated, transparently impregnated with wax, embedded, sliced, and spread, and observed after staining;

CIA arthritis mice = experiment: Arthritis index of CIA arthritis mice; conditions: for arthritis index: MEAN ± SEM
From the text: Test materials: bovine type II collagen acetic acid solution and complete Freund's adjuvant were purchased from Chondrex company; isoferulic acid was purchased from Tianjin Yifang Technology Co., Ltd.
Animals: C57BL/6 mice, purchased from Beijing Huafukang Biotechnology Co., Ltd.
Grouping: 24 C57BL/6 mice, male, 18-20 g, after 1 day of adaptive breeding, the mice were randomly divided into 4 groups: normal control group and CIA model group, 5 mice in each group; Cimicifugae rhizoma group and isoferulic acid group, 7 mice in each group.
Model preparation and drug administration: Prepared a 2 mg/ml bovine type II collagen acetic acid solution, took 2 ml of the overnighted bovine type II collagen acetic acid solution, mixed thoroughly with 2 ml of complete Freund's adjuvant and emulsified (operation on ice), and prepared the bovine type II collagen emulsion having a final concentration of 1 mg/ml. Each mouse was injected intradermally with 0.1 ml of the emulsion. 21 days after the first immunization, mice were given a second immunization for 21 days, starting from day 0 of the second immunization, the CIA model group was given 250 μL of distilled water by gavage and the Cimicifugae rhizoma group was given 250 μL of the Cimicifugae rhizoma decoction obtained in Preparation Example 1. The crude drug dose was 2 g/kg; 250 μL of an aqueous solution of isoferulic acid was administered by gavage in the isoferulic acid group at a dose of 5 mg/kg, administered once every 3 days, and bred continuously for 21 days.
Animals were scored using the joint scoring method (grades 0-4), and the assessment was based on the degree of joint redness and swelling and joint swelling and deformation. 0 point: no redness and swelling; 1 point: redness but no swelling of the joint; 2 points: mild redness and swelling of the joint; 3 points: moderate redness and swelling of the joint; 4 points: severe redness and swelling of the joint accompanied by dysfunction of the joint. Each limb was scored separately, and the sum of the scores of each limb is the arthritis index of the mouse. The highest score is 16 points. The higher the score, the more severe the joint symptoms.

COc1ccc(C=CC(=O)O)cc1O [isoferulic acid, 3-hydroxy-4-methoxycinnamic acid]
ALT [1]: 3573 ± 1314 U/L | AST [1]: 4351 ± 1588 U/L | liver pathological damage (HE staining) [2]: reduced hepatocyte degeneration and necrosis | arthritis index (CIA arthritis mice; Day 0 after second immunization, gavage once every 3 days (Cimicifugae rhizoma 2 g/kg, isoferulic acid 5 mg/kg), max 16 points): 0 ± 0 | arthritis index (CIA arthritis mice; Day 3 after second immunization): 0.43 ± 0.28 | arthritis index (CIA arthritis mice; Day 6 after second immunization): 1.0 ± 0.61 | arthritis index (CIA arthritis mice; Day 9 after second immunization): 3.14 ± 0.77 | arthritis index (CIA arthritis mice; Day 12 after second immunization): 5.14 ± 0.98 | arthritis index (CIA arthritis mice; Day 15 after second immunization, CIA group 8.43): 4.43 | arthritis index (CIA arthritis mice; Day 15 after second immunization, CIA group 8.43, listed as Isoferulic acid): 5.71 ± 0.83 | swelling of paw joints (FIG. 3) (CIA arthritis mice; pictures of front and hind paw joints, versus CIA arthritis mice): significantly reduced
